According to patent publication US6037158A, “Alcohol dehydrogenase and its use for the enzymatic production of chiral hydroxy compounds” (priority 1996, dated 2000):
Where two headings read alike, the source gives them in different places.

Molecular target: T1, alcohol dehydrogenase from L. brevis (Levilactobacillus brevis, UniProt Q84EX5)
T1 sequence (Q84EX5 2-252): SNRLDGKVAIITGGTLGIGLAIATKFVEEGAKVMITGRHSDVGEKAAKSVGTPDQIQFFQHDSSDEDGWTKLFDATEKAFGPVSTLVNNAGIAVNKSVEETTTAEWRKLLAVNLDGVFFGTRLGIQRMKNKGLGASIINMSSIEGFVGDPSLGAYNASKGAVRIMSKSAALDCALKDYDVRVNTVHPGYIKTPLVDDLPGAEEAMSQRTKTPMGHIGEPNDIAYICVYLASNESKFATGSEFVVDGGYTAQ
Assay: biochemical
Format: biochemical
Conditions: for Activity: 0.19 mM NADPH, pH 7.0, purified enzyme diluted 1:10
Description: A series of other ketones and keto esters were used instead of acetophenone and it was tested whether these can be reduced by enzyme catalysis.
The following test mixture was used for this:
970 μl triethanolamine buffer (50 mM; pH 7.0, containing 10 mM keto compound)
20 μl NADPH (0.19 mM in the test)
Some of the ketones were also tested at a concentration of 1 mM in order to verify a possible substrate inhibition at 10 mM.

[1] = relative to acetophenone = 100, 10 mM keto compound
[2] = relative to acetophenone = 100, 10 mM keto compound, read-out: Relative act.

Molecule | Activity (10 mM keto compound) [U/ml] | Relative act. [1] [%] | activity at 10000 µM [2] [%] | activity at 10000 µM (read-out: Relative act.) [%] | activity at 10000 µM (read-out: Relative act., relative to acetophenone = 100, 10 mM keto compound) [%]
CCOC(=O)C(=O)CCc1ccccc1 [2-oxo-4-phenylbutyric acid ethyl ester] | 4.60 | 141 | – | – | –
CCOC(=O)C(C)=O [ethyl pyruvate] | 8.10 | – | 248 | – | –
CCC(=O)CC(=O)OC [3-oxo-n-valeric acid methyl ester] | 2.26 | – | 69 | – | –
O=Cc1ccccc1 [benzaldehyde] | 0.30 | – | – | 9 | –
CCOC(=O)CC1CCCCC1=O (centres unmarked) [cyclohexanone-2-acetic acid ethyl ester] | 0.14 | – | 4 | – | –
C(CCOCC1CO1)COCC1CO1 (centres unmarked) [1,4-butanediol-diglyceridyl ether] | 0.77 | – | – | 24 | –
ketovaleric acid | 0.27 | 8 | – | – | –
CCOC(=O)CC(=O)CCl [4-Cl-acetic acid ethyl ester] | 3.04 | – | – | 93 | –
CCOC(=O)CC(=O)CC [3-oxo-n-valeric acid ethyl ester] | 2.29 | – | 70 | – | –
CCOC(=O)CC(C)=O [aceto acetic acid ethyl ester] | 3.54 | – | – | 109 | –
CC(=O)c1ccc(Cl)cc1 [4-Cl-acetophenone] | 6.63 | – | – | 203 | –
CC(=O)c1cccc2ccccc12 [methyl-1-naphthyl ketone] | 1.21 | – | 37 | – | –
CCOC(=O)C(F)(F)F [trifluoroacetic acid ethyl ester] | 0.50 | – | – | 15 | –
COC(=O)CC(C)=O [aceto acetic acid methyl ester] | 3.81 | – | – | 117 | –
CC(=O)CCc1ccccc1 [benzylacetone] | 3.24 | – | – | – | 99
CC(=O)CCCC(=O)O [4-acetylbutyric acid] | 0.32 | – | 10 | – | –

Molecule | Activity (10 mM keto compound) [U/ml] | Relative act. [1] [%] | activity at 10000 µM [2] [%] | activity at 10000 µM (read-out: Relative act.) [%] | activity at 10000 µM (read-out: Relative act., relative to acetophenone = 100, 10 mM keto compound) [%]
CC(=O)CC(C)=O [2,4-pentanedione] | 4.22 | – | – | 130 | –
CC(=O)Cc1ccccc1 [benzylmethyl ketone] | 0.36 | – | – | 11 | –
CCOC(=O)C(C)C(C)=O (centres unmarked) [ethyl-2-methylacetoacetate] | 0.84 | – | 26 | – | –
CC(=O)c1cccc(Cl)c1 [3-Cl-acetophenone] | 4.80 | – | – | 147 | –
CCOC(=O)CCCC(C)=O [4-acetylbutyric acid ethyl ester] | 2.84 | – | 87 | – | –
CCOC(=O)C(=O)CCc1ccccc1 [ethyl-2-oxo-4-phenyl butyrate] | 0.40 | 12 | – | – | –
CCOC(=O)CC(=O)c1ccccc1 [benzoyl acetic acid ethyl ester] | 1.14 | – | 35 | – | –
CCOC(=O)CC(=O)C(C)C [isobutyrylacetic acid ethyl ester] | 1.93 | – | 59 | – | –
CCCCOC(C)=O [acetic acid butyl ester] | 2.07 | – | – | 64 | –
COC(=O)C(C)=O [methyl pyruvate] | 3.22 | – | 98 | – | –
CCCC(=O)CC(=O)OCC [ethylbutyryl acetate] | 2.21 | – | 68 | – | –
CC1CCCCC1=O (centres unmarked) [2-methylcyclohexanone] | 6.25 | – | 192 | – | –
CC(=O)CC(=O)OCc1ccccc1 [aceto acetic acid benzyl ester] | 4.11 | – | 126 | – | –
CCOC(=O)C1CCCCC1=O (centres unmarked) [cyclohexanone-2-carboxylic acid ethyl ester] | 0.41 | – | 13 | – | –
CCc1ccc(C(C)=O)cc1 [4-ethylacetophenone] | 2.13 | – | – | 65 | –
